Laboratory results: patent US10632125B2, “MTH1 inhibitors for treatment of inflammatory and autoimmune conditions” (THOMAS HELLEDAYS STIFTELSE FÖR MEDICINSK FORSKNING, priority 2014, dated 2020)

biological target: MTH1 (Homo sapiens, UniProt P36639); assay: MTH1 enzymatic assay (malachite green, coupled to pyrophosphatase); format: biochemical; conditions: dGTP 100 μM, MTH1 6 nM; 96- or 384-well format; read-out: IC50

SMILES	IC50
Cc1cccc(-c2cc(NCCNc3cc(-c4cccc(C)c4C)nc(N)n3)nc(N)n2)c1C [Example 561, 4-N-(2-{[2-amino-6-(2,3-dimethylphenyl)pyrimidin-4-yl]amino}ethyl)-6-(2,3-dimethylphenyl)pyrimidine-2,4-diamine]	< 200 nM
Cc1c(Cl)cccc1-c1cc(NC2CC2C)nc(N)n1 (centres unmarked) [Example 581, 6-(3-chloro-2-methylphenyl)-4-N-(2-methylcyclopropyl)pyrimidine-2,4-diamine]	< 200 nM
Cc1cccc(-c2cc(NC3CNC3)nc(N)n2)c1C [Example 589, 4-N-(azetidin-3-yl)-6-(2,3-dimethylphenyl)pyrimidine-2,4-diamine]	2000 to 10000 nM
Cc1c(Cl)cccc1-c1cc(NCCc2ccc(NC(=O)C3CC3)cc2)nc(N)n1 [Example 597, N-[4-(2-{[2-amino-6-(3-chloro-2-methylphenyl)pyrimidin-4-yl]amino}ethyl)phenyl]cyclopropanecarboxamide]	< 200 nM
Cc1cccc(-c2cc(NCCc3cccs3)nc(N)n2)c1C [Example 598, 6-(2,3-dimethylphenyl)-4-N-[2-(thiophen-2-yl)ethyl]pyrimidine-2,4-diamine]	< 200 nM
Cc1c(Cl)cccc1-c1cc(NCCc2ccc(Cl)c(Cl)c2)nc(N)n1 [Example 599, 6-(3-chloro-2-methylphenyl)-4-N-[2-(3,4-dichlorophenyl)ethyl]pyrimidine-2,4-diamine]	< 200 nM
Cc1c(Cl)cccc1-c1cc(NCCc2ccc(Cl)cc2Cl)nc(N)n1 [Example 600, 6-(3-chloro-2-methylphenyl)-4-N-[2-(2,4-dichlorophenyl)ethyl]pyrimidine-2,4-diamine]	< 200 nM
Cc1c(Cl)cccc1-c1cc(NCCc2ccc(C#N)cc2)nc(N)n1 [Example 625, 4-(2-{[2-amino-6-(3-chloro-2-methylphenyl)pyrimidin-4-yl]amino}ethyl)benzonitrile]	< 200 nM
CNc1cc(C#Cc2ccccc2)nc(N)n1 [Example 626, 4-N-methyl-6-(2-phenylethynyl)pyrimidine-2,4-diamine]	< 200 nM
Cc1c(Cl)cccc1-c1cc(NCCNc2ccc3c(=O)[nH]cnc3c2)nc(N)n1 [Example 632, 7-[2-[[2-amino-6-(3-chloro-2-methyl-phenyl)pyrimidin-4-yl]amino]ethylamino]-3H-quinazolin-4-one]	< 200 nM
Cc1c(Cl)cccc1-c1cc(NCCc2ccc(N)cc2)nc(N)n1 [Example 642, N4-[2-(4-aminophenyl)ethyl]-6-(3-chloro-2-methyl-phenyl)pyrimidine-2,4-diamine]	< 200 nM
Cc1c(Cl)cccc1-c1cc(NCCNS(=O)(=O)c2cccc(F)c2)nc(N)n1 [Example 660, N-[2-[[2-amino-6-(3-chloro-2-methyl-phenyl)pyrimidin-4-yl]amino]ethyl]-3-fluoro-benzenesulfonamide]	< 200 nM
Cc1c(Cl)cccc1-c1cc(NCCNC(=O)Nc2cccc(F)c2)nc(N)n1 [Example 663, 1-[2-[[2-amino-6-(3-chloro-2-methyl-phenyl)pyrimidin-4-yl]amino]ethyl]-3-(3-fluorophenyl)urea]	< 200 nM
Cc1c(Cl)cccc1-c1cc(NC2CN(c3ccc(S(N)(=O)=O)cc3)C2)nc(N)n1 [Example 667]	2000 to 10000 nM
Cc1c(Cl)cccc1-c1cc(NCCCNC(=O)OC(C)(C)C)nc(N)n1 [Example 668, tert-butyl N-[3-[[2-amino-6-(3-chloro-2-methyl-phenyl)pyrimidin-4-yl]amino]propyl]carbamate]	< 200 nM
Cc1c(Cl)cccc1-c1cc(NCCCCc2ccccc2)nc(N)n1 [Example 680, 6-(3-chloro-2-methyl-phenyl)-N4-(4-phenylbutyl)pyrimidine-2,4-diamine]	< 200 nM
Cc1c(Cl)cccc1-c1cc(NCCC2=CCCCC2)nc(N)n1 [Example 681, 6-(3-chloro-2-methyl-phenyl)-N4-[2-(cyclohexen-1-yl)ethyl]pyrimidine-2,4-diamine]	< 200 nM
C=CCCNc1cc(-c2cccc(Cl)c2C)nc(N)n1 [Example 682, N4-but-3-enyl-6-(3-chloro-2-methyl-phenyl)pyrimidine-2,4-diamine]	< 200 nM
Cc1c(Cl)cccc1-c1cc(NCCNc2cccc3c(S(=O)(=O)O)cccc23)nc(N)n1 [Example 683, 5-[2-[[2-amino-6-(3-chloro-2-methyl-phenyl)pyrimidin-4-yl]amino]ethylamino]naphthalene-1-sulfonic acid]	< 200 nM
Cc1c(Cl)cccc1-c1cc(NCCOCC2CC2)nc(N)n1 [Example 684, 6-(3-chloro-2-methyl-phenyl)-N4-[2-(cyclopropylmethoxy)ethyl]pyrimidine-2,4-diamine]	< 200 nM
Cc1c(Cl)cccc1-c1cc(NCC=C(F)F)nc(N)n1 [Example 686, 6-(3-chloro-2-methyl-phenyl)-N4-(3,3-difluoroallyl)pyrimidine-2,4-diamine]	< 200 nM
Cc1c(Cl)cccc1-c1cc(NCCC(F)(F)Br)nc(N)n1 [Example 687, N4-(3-bromo-3,3-difluoro-propyl)-6-(3-chloro-2-methyl-phenyl)pyrimidine-2,4-diamine]	< 200 nM
Cc1c(Cl)cccc1-c1cc(NCCSCCc2ccccc2)nc(N)n1 [Example 690, 6-(3-chloro-2-methylphenyl)-N4-{2-[(2-phenylethyl)sulfanyl]ethyl}pyrimidine-2,4-diamine]	< 200 nM

Now from value to compound:

IC50	SMILES
2000 to 10000 nM	Cc1c(Cl)cccc1-c1cc(NCC[S+]([O-])CCc2ccccc2)nc(N)n1 (centres unmarked) [Example 692, 6-(3-chloro-2-methyl-phenyl)-N4-[2-(2-phenylethylsulfinyl)ethyl]pyrimidine-2,4-diamine]
< 200 nM	Cc1cc(CSCCNc2cc(-c3cccc(Cl)c3C)nc(N)n2)no1 [Example 700, 6-(3-chloro-2-methyl-phenyl)-N4-[2-[(5-methylisoxazol-3-yl)methylsulfanyl]ethyl]pyrimidine-2,4-diamine]
< 200 nM	Cc1noc(C)c1CCNc1cc(-c2cccc(Cl)c2C)nc(N)n1 [Example 701, 6-(3-chloro-2-methyl-phenyl)-N4-[2-(3,5-dimethylisoxazol-4-yl)ethyl]pyrimidine-2,4-diamine]
< 200 nM	CCCNc1cc(-c2cccc(Cl)c2C)nc(N)n1 [Example 702, 6-(3-chloro-2-methyl-phenyl)-N4-propyl-pyrimidine-2,4-diamine]
< 200 nM	CCCCNc1cc(-c2cccc(Cl)c2C)nc(N)n1 [Example 703, N4-butyl-6-(3-chloro-2-methyl-phenyl)pyrimidine-2,4-diamine]
< 200 nM	COCCNc1cc(-c2cccc(Cl)c2C)nc(N)n1 [Example 704, 6-(3-chloro-2-methyl-phenyl)-N4-(2-methoxyethyl)pyrimidine-2,4-diamine]
< 200 nM	CCOCCCNc1cc(-c2cccc(Cl)c2C)nc(N)n1 [Example 705, 6-(3-chloro-2-methyl-phenyl)-N4-(3-ethoxypropyl)pyrimidine-2,4-diamine]
< 200 nM	Cc1c(Cl)cccc1-c1cc(NCC2CCOCC2)nc(N)n1 [Example 706, 6-(3-chloro-2-methyl-phenyl)-N4-(tetrahydropyran-4-ylmethyl)pyrimidine-2,4-diamine]
< 200 nM	Cc1c(Cl)cccc1-c1cc(NCC2CCCO2)nc(N)n1 (centres unmarked) [Example 707, 6-(3-chloro-2-methyl-phenyl)-N4-(tetrahydrofuran-2-ylmethyl)pyrimidine-2,4-diamine]
< 200 nM	CC(C)=CCC/C(C)=C/CNc1cc(-c2cccc(Cl)c2C)nc(N)n1 [Example 708, 6-(3-chloro-2-methyl-phenyl)-N4-[(2E)-3,7-dimethylocta-2,6-dienyl]pyrimidine-2,4-diamine]
< 200 nM	Cc1c(Cl)cccc1-c1cc(NCC(C)C)nc(N)n1 [Example 709, 6-(3-chloro-2-methyl-phenyl)-N4-isobutyl-pyrimidine-2,4-diamine]
< 200 nM	Cc1c(Cl)cccc1-c1cc(NCCc2ccccc2)nc(N)n1 [Example 713, 6-(3-chloro-2-methyl-phenyl)-N4-(2-phenylethyl)pyrimidine-2,4-diamine]
< 200 nM	Cc1c(Cl)cccc1-c1cc(NCCc2ccncc2)nc(N)n1 [Example 714, 6-(3-chloro-2-methyl-phenyl)-N4-[2-(4-pyridyl)ethyl]pyrimidine-2,4-diamine]
< 200 nM	Cc1c(Cl)cccc1-c1cc(NCCc2ccccn2)nc(N)n1 [Example 715, 6-(3-chloro-2-methyl-phenyl)-N4-[2-(2-pyridyl)ethyl]pyrimidine-2,4-diamine]
< 200 nM	Cc1c(Cl)cccc1-c1cc(NC/C(=C\F)CCc2ccc(F)cc2)nc(N)n1 [Example 721, 6-(3-chloro-2-methyl-phenyl)-N4-[(2Z)-2-(fluoromethylene)-4-(4-fluorophenyl)butyl]pyrimidine-2,4-diamine]
2000 to 10000 nM	Cc1cc(C[S+]([O-])CCNc2cc(-c3cccc(Cl)c3C)nc(N)n2)no1 (centres unmarked) [Example 725, 6-(3-chloro-2-methyl-phenyl)-N4-[2-[(5-methylisoxazol-3-yl)methylsulfinyl]ethyl]pyrimidine-2,4-diamine]
< 200 nM	Cc1c(Cl)cccc1-c1cc(NCCc2ccc(O)c(O)c2)nc(N)n1 [Example 727, 4-[2-[[2-amino-6-(3-chloro-2-methyl-phenyl)pyrimidin-4-yl]amino]ethyl]benzene-1,2-diol]
< 200 nM	Cc1c(Cl)cccc1-c1cc(NCCc2cc(O)c(O)c(O)c2)nc(N)n1 [Example 728, 5-[2-[[2-amino-6-(3-chloro-2-methyl-phenyl)pyrimidin-4-yl]amino]ethyl]benzene-1,2,3-triol]
< 200 nM	C=C(C)CNc1cc(-c2cccc(Cl)c2C)nc(N)n1 [Example 729, 6-(3-chloro-2-methyl-phenyl)-N4-(2-methylallyl)pyrimidine-2,4-diamine]
< 200 nM	COC(=O)C1CCC(CNc2cc(-c3cccc(Cl)c3C)nc(N)n2)CC1 (centres unmarked) [Example 731, methyl 4-[[[2-amino-6-(3-chloro-2-methyl-phenyl)pyrimidin-4-yl]amino]methyl]cyclohexanecarboxylate]
< 200 nM	Cc1c(Cl)cccc1-c1cc(NCCc2cccnc2)nc(N)n1 [Example 733, 6-(3-chloro-2-methyl-phenyl)-N4-[2-(3-pyridyl)ethyl]pyrimidine-2,4-diamine]
